According to patent US20260365670A1, “EGFR INHIBITORS AND USES THEREOF” (DIZAL (JIANGSU) PHARMACEUTICAL CO., LTD., priority 2022, published 2026):
Like-named read-outs stand apart in the source and are kept apart here.

Legend:
[1] = molecular target: T1, EGFR[T790M/C797S/d746-750] (Homo sapiens, UniProt P00533, C797S/DEL746-750/T790M); assay: Inhibition of EGFR[T790M/C797S/d746-750] biochemical enzymatic activity (HTRF)
T1 construct: purchased Carna Bio
In short: (§1)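 Using a high ATP level (1 mM), wild-type and mutant EGFR enzymes were incubated 1 h at room temperature with inhibitor and 1 μM biotinylated TK substrate. Phosphorylation was quantified as the 665/615 nm HTRF ratio. IC50s were derived by logistic fitting.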

EGFR L858R = molecular target: T2, EGFR L858R (Homo sapiens, UniProt P00533, L858R); assay: Inhibition of EGFR L858R biochemical enzymatic activity (HTRF); details: 1 mM ATP
T2 construct: purchased Carna Bio
T2 sequence (P00533 25-1210 L858R): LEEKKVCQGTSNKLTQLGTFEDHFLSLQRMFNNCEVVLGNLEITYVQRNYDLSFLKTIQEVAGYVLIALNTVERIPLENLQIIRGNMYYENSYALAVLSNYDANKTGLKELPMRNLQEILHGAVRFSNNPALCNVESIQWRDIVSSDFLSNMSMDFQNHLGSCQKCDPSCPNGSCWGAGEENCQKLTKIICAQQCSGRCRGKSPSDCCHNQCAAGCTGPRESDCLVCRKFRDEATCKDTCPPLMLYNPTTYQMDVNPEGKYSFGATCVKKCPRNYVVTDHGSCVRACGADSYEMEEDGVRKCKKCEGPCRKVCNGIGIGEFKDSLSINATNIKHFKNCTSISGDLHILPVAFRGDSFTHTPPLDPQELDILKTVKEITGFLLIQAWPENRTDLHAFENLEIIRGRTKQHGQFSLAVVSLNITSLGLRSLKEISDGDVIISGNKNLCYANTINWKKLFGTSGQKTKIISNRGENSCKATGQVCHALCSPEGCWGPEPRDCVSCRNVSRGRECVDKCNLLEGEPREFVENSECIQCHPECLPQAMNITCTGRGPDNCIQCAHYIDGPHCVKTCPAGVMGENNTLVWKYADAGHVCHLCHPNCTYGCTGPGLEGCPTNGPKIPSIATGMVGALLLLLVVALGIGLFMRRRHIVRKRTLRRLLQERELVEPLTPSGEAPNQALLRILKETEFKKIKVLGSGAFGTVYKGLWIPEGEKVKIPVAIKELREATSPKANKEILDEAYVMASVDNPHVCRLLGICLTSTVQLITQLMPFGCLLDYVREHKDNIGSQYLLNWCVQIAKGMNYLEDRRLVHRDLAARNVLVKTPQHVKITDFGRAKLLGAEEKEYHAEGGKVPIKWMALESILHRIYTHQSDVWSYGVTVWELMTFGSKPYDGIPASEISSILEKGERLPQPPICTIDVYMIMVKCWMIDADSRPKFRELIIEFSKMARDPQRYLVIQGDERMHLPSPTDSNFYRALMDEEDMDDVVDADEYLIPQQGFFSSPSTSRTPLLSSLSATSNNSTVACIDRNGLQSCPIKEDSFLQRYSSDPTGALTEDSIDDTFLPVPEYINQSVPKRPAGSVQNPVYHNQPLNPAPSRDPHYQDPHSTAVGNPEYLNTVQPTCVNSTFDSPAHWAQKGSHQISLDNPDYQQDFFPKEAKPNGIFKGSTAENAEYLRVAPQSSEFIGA
In short: as §1

[2] = tested on: Ba/F3 cells expressing EGFR mutations; assay: Cell proliferation assay, Ba/F3 cells expressing EGFR mutations (CellTiter-Glo, 72 hours); type: cell-based
In short: (§2)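 Ba/F3 cells carrying EGFR mutants (5000/well) or PC-9 cells (500/well) in RPMI1640 were dosed with compound series after overnight attachment and grown 72 h. Viability read by CellTiter-Glo, with day-0 counts subtracted; GI50 from curve fits of % proliferation versus DMSO control.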

EGFR (d746-750 C797S) = molecular target: T3, EGFR (d746-750 C797S) (Homo sapiens, UniProt P00533, C797S/DEL746-750); assay: Inhibition of EGFR (d746-750 C797S) biochemical enzymatic activity (HTRF); details: 1 mM ATP
T3 construct: purchased signalchem
In short: as §1

EGFR L858R/T790M = molecular target: T4, EGFR L858R/T790M (Homo sapiens, UniProt P00533, L858R/T790M); assay: Inhibition of EGFR L858R/T790M biochemical enzymatic activity (HTRF); details: 1 mM ATP
T4 construct: purchased Carna Bio
T4 sequence (P00533 25-1210 T790M/L858R): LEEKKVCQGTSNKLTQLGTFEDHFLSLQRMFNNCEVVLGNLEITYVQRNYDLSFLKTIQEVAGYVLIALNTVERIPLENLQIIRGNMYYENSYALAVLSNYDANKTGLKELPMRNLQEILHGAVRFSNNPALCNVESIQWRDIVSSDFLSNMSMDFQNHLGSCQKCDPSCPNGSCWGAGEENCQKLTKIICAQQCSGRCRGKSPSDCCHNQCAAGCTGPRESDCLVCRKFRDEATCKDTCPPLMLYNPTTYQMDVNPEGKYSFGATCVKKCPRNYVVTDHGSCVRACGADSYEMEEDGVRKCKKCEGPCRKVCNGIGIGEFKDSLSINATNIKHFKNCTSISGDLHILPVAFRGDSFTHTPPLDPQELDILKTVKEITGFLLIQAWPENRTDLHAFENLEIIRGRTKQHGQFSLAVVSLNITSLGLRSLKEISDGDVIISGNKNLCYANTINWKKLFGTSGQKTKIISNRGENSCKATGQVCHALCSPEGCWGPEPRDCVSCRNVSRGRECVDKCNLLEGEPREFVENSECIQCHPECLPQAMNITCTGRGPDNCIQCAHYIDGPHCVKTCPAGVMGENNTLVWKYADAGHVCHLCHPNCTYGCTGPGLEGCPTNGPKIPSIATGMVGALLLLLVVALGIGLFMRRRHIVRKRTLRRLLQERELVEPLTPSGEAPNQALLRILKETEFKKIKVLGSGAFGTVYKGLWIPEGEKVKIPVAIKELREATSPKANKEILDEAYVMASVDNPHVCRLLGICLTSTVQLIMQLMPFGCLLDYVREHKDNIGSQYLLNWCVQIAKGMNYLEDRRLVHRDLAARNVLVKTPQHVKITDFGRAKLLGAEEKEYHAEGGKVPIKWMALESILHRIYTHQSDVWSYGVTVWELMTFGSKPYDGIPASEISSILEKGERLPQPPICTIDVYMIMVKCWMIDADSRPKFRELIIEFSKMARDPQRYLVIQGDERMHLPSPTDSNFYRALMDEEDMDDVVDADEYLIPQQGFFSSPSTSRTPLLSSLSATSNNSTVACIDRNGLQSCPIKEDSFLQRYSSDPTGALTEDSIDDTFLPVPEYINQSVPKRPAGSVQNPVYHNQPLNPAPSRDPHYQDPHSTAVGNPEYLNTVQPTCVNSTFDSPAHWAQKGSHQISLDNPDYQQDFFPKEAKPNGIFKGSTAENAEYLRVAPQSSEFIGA
In short: as §1

EGFR[T790M/C797S/L858R] = molecular target: T5, EGFR[T790M/C797S/L858R] (Homo sapiens, UniProt P00533, C797S/L858R/T790M); assay: Inhibition of EGFR[T790M/C797S/L858R] biochemical enzymatic activity (HTRF); details: 1 mM ATP
T5 construct: purchased Carna Bio
In short: as §1

EGFR Exon19Del = molecular target: T6, EGFR Exon19Del (Homo sapiens, UniProt P00533, DEL746-750); assay: Inhibition of EGFR Exon19Del biochemical enzymatic activity (HTRF); details: read-out: IC50 @Del19
T6 construct: purchased Carna Bio
T6 sequence (P00533 with tags, fused parts or gaps DEL746-750 limits assumed): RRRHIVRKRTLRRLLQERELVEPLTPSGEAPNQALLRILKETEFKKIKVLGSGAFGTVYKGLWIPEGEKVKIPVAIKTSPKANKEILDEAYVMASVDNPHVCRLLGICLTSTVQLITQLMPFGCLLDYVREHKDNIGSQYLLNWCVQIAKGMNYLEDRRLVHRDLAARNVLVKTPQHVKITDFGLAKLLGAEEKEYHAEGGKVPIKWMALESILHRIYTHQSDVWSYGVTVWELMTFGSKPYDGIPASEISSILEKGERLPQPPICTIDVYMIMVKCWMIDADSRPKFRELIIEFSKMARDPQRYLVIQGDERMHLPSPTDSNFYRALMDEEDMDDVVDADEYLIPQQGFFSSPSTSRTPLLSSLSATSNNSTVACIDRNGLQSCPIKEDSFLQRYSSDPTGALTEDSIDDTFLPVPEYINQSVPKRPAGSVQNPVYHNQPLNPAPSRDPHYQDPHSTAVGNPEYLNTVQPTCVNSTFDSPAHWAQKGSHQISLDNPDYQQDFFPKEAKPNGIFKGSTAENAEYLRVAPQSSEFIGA
In short: as §1

A-431 = assay: Cell proliferation assay, A-431 cells (GI50, Table 6); type: cell-based; details: Homo sapiens, A-431, A-431 cells
EGFR Exon19Del/T790M = molecular target: T7, EGFR Exon19Del/T790M (Homo sapiens, UniProt P00533, DEL746-750/T790M); assay: Inhibition of EGFR Exon19Del/T790M biochemical enzymatic activity (HTRF); details: 1 mM ATP
T7 construct: purchased Carna Bio
T7 sequence (P00533 with tags, fused parts or gaps DEL746-750/T790M limits assumed): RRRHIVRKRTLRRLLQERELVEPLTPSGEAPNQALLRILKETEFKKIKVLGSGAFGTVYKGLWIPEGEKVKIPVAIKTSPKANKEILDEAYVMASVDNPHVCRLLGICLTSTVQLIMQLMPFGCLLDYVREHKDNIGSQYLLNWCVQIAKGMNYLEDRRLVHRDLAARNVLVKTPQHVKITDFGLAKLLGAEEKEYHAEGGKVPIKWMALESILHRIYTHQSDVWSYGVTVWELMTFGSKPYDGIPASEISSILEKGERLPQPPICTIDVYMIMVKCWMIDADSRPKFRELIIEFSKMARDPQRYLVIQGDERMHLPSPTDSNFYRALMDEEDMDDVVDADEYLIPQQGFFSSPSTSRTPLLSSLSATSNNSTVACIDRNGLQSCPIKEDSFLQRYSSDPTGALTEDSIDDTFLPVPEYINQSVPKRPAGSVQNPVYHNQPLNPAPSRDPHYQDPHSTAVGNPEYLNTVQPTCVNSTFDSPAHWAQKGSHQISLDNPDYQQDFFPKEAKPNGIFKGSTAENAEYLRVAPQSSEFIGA
In short: as §1

PC-9 = assay: Cell proliferation assay, PC-9 cells (CellTiter-Glo, 72 hours); type: cell-based; details: PC9 cells, read-out: GI50 PC9
In short: as §2

EGFR (C797S L858R) = molecular target: T8, EGFR (C797S L858R) (Homo sapiens, UniProt P00533, C797S/L858R); assay: Inhibition of EGFR (C797S L858R) biochemical enzymatic activity (HTRF); details: 1 mM ATP
T8 construct: purchased signalchem
T8 sequence (P00533 25-1210 C797S/L858R): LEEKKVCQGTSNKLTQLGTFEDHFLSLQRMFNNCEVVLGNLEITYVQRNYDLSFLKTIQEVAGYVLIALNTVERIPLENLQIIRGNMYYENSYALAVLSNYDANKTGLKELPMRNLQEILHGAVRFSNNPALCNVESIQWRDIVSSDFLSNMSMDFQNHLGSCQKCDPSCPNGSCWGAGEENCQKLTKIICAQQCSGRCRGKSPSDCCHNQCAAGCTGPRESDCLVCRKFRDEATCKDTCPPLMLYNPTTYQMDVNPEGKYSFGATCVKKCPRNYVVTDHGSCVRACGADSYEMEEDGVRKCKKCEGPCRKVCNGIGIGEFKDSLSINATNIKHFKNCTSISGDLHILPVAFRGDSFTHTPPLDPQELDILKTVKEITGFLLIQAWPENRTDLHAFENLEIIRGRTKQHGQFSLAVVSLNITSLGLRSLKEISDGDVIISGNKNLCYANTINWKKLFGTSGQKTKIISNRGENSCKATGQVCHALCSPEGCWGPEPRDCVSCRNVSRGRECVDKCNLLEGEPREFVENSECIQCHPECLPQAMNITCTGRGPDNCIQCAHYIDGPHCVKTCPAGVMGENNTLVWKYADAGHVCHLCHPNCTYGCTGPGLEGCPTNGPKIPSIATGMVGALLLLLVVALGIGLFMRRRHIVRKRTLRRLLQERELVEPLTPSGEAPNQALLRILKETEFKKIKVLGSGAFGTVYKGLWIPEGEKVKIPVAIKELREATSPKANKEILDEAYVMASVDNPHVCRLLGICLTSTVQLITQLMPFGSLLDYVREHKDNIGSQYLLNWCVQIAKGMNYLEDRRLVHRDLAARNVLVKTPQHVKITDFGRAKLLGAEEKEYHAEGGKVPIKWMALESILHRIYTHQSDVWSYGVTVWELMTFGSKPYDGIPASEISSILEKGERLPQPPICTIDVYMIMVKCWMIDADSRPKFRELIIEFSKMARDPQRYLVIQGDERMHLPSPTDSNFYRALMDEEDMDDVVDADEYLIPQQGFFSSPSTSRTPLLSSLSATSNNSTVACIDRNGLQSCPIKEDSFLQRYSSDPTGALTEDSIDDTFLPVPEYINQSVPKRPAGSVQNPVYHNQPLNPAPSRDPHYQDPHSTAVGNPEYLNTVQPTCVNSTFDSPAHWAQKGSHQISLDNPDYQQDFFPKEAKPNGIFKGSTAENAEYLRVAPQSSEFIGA
In short: as §1

EGFR wild type = molecular target: T9, EGFR wild type (Homo sapiens, UniProt P00533); assay: Inhibition of EGFR wild type biochemical enzymatic activity (HTRF); details: 1 mM ATP
T9 construct: purchased Carna Bio
In short: as §1

[3] = EGFR T790M-C797S-Del19, 1 mM ATP, 1 h, room temperature, read-out: IC50 (nM) @T790M - C797S - Del19
[4] = 1 h, room temperature, read-out: IC50 (nM) @L858R
[5] = Mus musculus, BaF3, 72 h, BaF3 cells, EGFR DEL19 - C797S, read-out: GI50 DEL19 - C797S/BaF3
[6] = Mus musculus, BaF3, 72 h, BaF3 cells, EGFR DEL19 - T790-C797S, read-out: GI50 DEL19 - T790-C797S/BaF3
[7] = Mus musculus, BaF3, 72 h, BaF3 cells, EGFR L858R - C797S, read-out: GI50 L858R - C797S/BaF3
[8] = Mus musculus, BaF3, 72 h, BaF3 cells, EGFR L858R - T790-C797S, read-out: GI50 L858R - T790-C797S/BaF3
[9] = Mus musculus, BaF3, 72 h, BaF3 cells, EGFR L858R - T790M, read-out: GI50 L858R - T790M/BaF3
[10] = Mus musculus, BaF3, 72 h, BaF3 cells, EGFR L858R, read-out: GI50 L858R/BaF3
[11] = Mus musculus, BaF3, 72 h, EGFR DEL19 - T790M, read-out: GI50 DEL19 - T790M
[12] = EGFR Del19-C797S, 1 h, room temperature, read-out: IC50 (nM) @Del19-C797S
[13] = EGFR L858R-T790M, 1 h, room temperature, read-out: IC50 (nM) @L858R-T790M
[14] = EGFR T790M-C797S-L858R, 1 h, room temperature, read-out: IC50 (nM) @T790M- C797S - L858R
[15] = EGFR Del19, 1 mM ATP, 1 h, room temperature
[16] = EGFR Del19-T790M, 1 h, room temperature, read-out: IC50 (nM) @Del19-T790M
[17] = EGFR L858-C797S, 1 h, room temperature, read-out: IC50 (nM) @L858-C797S
[18] = EGFR WT, 1 h, room temperature, read-out: IC50 (nM) @WT
[19] = EGFR[T790M/C797S/d746-750], 1 mM ATP, 1 h at room temperature, read-out: IC50 @T790M - C797S - Del19
[20] = 1 h at room temperature, read-out: IC50 @L858R
[21] = BaF3 cells, EGFR DEL19 - C797S, read-out: GI50 DEL19 - C797S/BaF3
[22] = BaF3 cells, EGFR DEL19 - T790-C797S, read-out: GI50 DEL19 - T790-C797S/BaF3
[23] = BaF3 cells, EGFR L858R - C797S, read-out: GI50 L858R - C797S/BaF3
[24] = BaF3 cells, EGFR L858R - T790-C797S, read-out: GI50 L858R - T790-C797S/BaF3
[25] = BaF3 cells, EGFR L858R - T790M, read-out: GI50 L858R - T790M/BaF3
[26] = BaF3 cells, EGFR L858R, read-out: GI50 L858R/BaF3
[27] = EGFR DEL19 - T790M, read-out: GI50 DEL19 - T790M
[28] = EGFR (d746-750 C797S), 1 h at room temperature, read-out: IC50 @Del19-C797S
[29] = EGFR L858R/T790M, 1 h at room temperature, read-out: IC50 @L858R-T790M
[30] = EGFR[T790M/C797S/L858R], 1 h at room temperature, read-out: IC50 @T790M- C797S - L858R
[31] = EGFR Exon19Del, 1 mM ATP, 1 h at room temperature
[32] = EGFR Exon19Del/T790M, 1 h at room temperature, read-out: IC50 @Del19-T790M
[33] = EGFR (C797S L858R), 1 h at room temperature, read-out: IC50 @L858-C797S
[34] = EGFR wild type, 1 h at room temperature, read-out: IC50 @WT

Row | IC50 [1, 3] | IC50 (EGFR L858R; [4]) | GI50 [2, 5] | GI50 [2, 6] | GI50 [2, 7] | GI50 [2, 8] | GI50 [2, 9] | GI50 [2, 10] | GI50 [2, 11] | GI50 (A-431) | GI50 (PC-9; Homo sapiens, PC-9, 72 h) | IC50 [1, 19] | IC50 (EGFR L858R; [20]) | IC50 (EGFR (d746-750 C797S); [28]) | IC50 (EGFR L858R/T790M; [29]) | IC50 (EGFR[T790M/C797S/L858R]; [30]) | IC50 (EGFR Exon19Del; [31]) | IC50 (EGFR Exon19Del/T790M; [32]) | IC50 (EGFR (C797S L858R); [33]) | IC50 (EGFR wild type; [34]) | SMILES | further results
1 |  |  |  |  |  |  |  |  |  | 0.426 µM |  | 2.3 nM | 26 nM | 1.7 nM | 3 nM | 1.6 nM | 0.0044 µM | 4.1 nM | 5.1 nM | 392 nM | CCN1CCN(c2ccc3nc4n(c3c2)C23CCC(CN(CCOc5c(cnn5C)-c5cc(cc(C)n5)C(=O)N4)C2)C3)CC1 (single isomer, unassigned) [Example B56B] | GI50 [2, 21]: 0.002 µM; GI50 [2, 22]: 0.002 µM; GI50 [2, 23]: 0.005 µM; GI50 [2, 24]: 0.002 µM; GI50 [2, 25]: 0.002 µM; GI50 [2, 26]: 0.012 µM; GI50 [2, 27]: 0.007 µM; GI50 (PC-9): 0.01 µM
2 |  |  | 0.011 µM | 0.004 µM | 0.083 µM | 0.009 µM | 0.017 µM | 0.064 µM | 0.004 µM | 4.52 µM | 0.086 µM | 5.4 nM | 421 nM | 20 nM | 16 nM | 8.4 nM | 0.039 µM | 12 nM | 203 nM | > 5000 nM | Cc1cc2cc(n1)-c1cnn(C)c1OCCN1CC3CCC(CC3)(C1)n1c(nc3ccc(N4CC5CN(C)CC5C4)cc31)NC2=O (stereo not drawn) [Example B34] | 
3 |  |  |  |  |  |  |  |  |  | 3.03 µM |  | 3.4 nM | 21 nM | 3.5 nM | 5.9 nM | 2.9 nM | 0.0061 µM | 5.6 nM | 8.4 nM | 546 nM | Cc1cc2cc(n1)-c1cnn(C)c1OCCN1CC3CCC(C3)(C1)n1c(nc3ccc(N4CCC5(CCN(C)CC5)C4)cc31)NC2=O (single isomer, unassigned) [Example B51B] | GI50 [2, 21]: 0.002 µM; GI50 [2, 22]: 0.002 µM; GI50 [2, 23]: 0.004 µM; GI50 [2, 24]: 0.002 µM; GI50 [2, 25]: 0.002 µM; GI50 [2, 26]: 0.008 µM; GI50 [2, 27]: 0.002 µM; GI50 (PC-9): 0.008 µM

The next lines start with the compound.

Row | SMILES | IC50 [1, 3] | IC50 (EGFR L858R; [4]) | GI50 [2, 5] | GI50 [2, 6] | GI50 [2, 7] | GI50 [2, 8] | GI50 [2, 9] | GI50 [2, 10] | GI50 [2, 11] | GI50 (A-431) | GI50 (PC-9; Homo sapiens, PC-9, 72 h) | IC50 [1, 19] | IC50 (EGFR L858R; [20]) | IC50 (EGFR (d746-750 C797S); [28]) | IC50 (EGFR L858R/T790M; [29]) | IC50 (EGFR[T790M/C797S/L858R]; [30]) | IC50 (EGFR Exon19Del; [31]) | IC50 (EGFR Exon19Del/T790M; [32]) | IC50 (EGFR (C797S L858R); [33]) | IC50 (EGFR wild type; [34]) | further results
4 | CN(C)C1CCN(c2ccc3nc4n(c3c2)C23CCC(CC2)CN(CCOc2c(cnn2C)-c2cc(cn(C)c2=O)C(=O)N4)C3)CC1 [Example A119, 5-[4-(dimethylamino)piperidin-1-yl]-15,21-dimethyl-23-oxa-2,9,11,15,20,21,26-heptaazaheptacyclo[26.2.2.1^{1,26}.1^{13,17}.0^{2,10}.0^{3,8}.0^{18,22}]tetratriaconta-3,5,7,9,13,17(34),18(22),19-octaene-12,16-dione] | 3 nM | 38 nM | 0.0015 µM | 0.011 µM | 0.011 µM | 0.0066 µM | 0.015 µM | 0.0021 µM | 0.0073 µM | 1.07 µM | 0.011 µM |  |  |  |  |  |  |  |  |  | IC50 (EGFR (d746-750 C797S); [12]): 4.7 nM; IC50 (EGFR L858R/T790M; [13]): 32 nM; IC50 (EGFR[T790M/C797S/L858R]; [14]): 9 nM; IC50 (EGFR Exon19Del; [15]): 0.0076 µM; IC50 (EGFR Exon19Del/T790M; [16]): 6.6 nM; IC50 (EGFR (C797S L858R); [17]): 19 nM; IC50 (EGFR wild type; [18]): 1060 nM
5 | CN1CCC2(CC1)CCN(c1ccc3nc4n(c3c1)C13CCC(CC1)CN(CCOc1c(cnn1C)-c1cc(cn(C)c1=O)C(=O)N4)C3)C2 [Example A123] | 11 nM | 65 nM | 0.012 µM | 0.045 µM | 0.032 µM | 0.02 µM | 0.059 µM | 0.0058 µM | 0.027 µM | 6.11 µM | 0.025 µM |  |  |  |  |  |  |  |  |  | IC50 (EGFR (d746-750 C797S); [12]): 9.4 nM; IC50 (EGFR L858R/T790M; [13]): 223 nM; IC50 (EGFR[T790M/C797S/L858R]; [14]): 23 nM; IC50 (EGFR Exon19Del; [15]): 0.013 µM; IC50 (EGFR Exon19Del/T790M; [16]): 13 nM; IC50 (EGFR (C797S L858R); [17]): 57 nM; IC50 (EGFR wild type; [18]): > 5000 nM
